Data as given in patent US8716246B2, “Azuvirin peptides” (The Regents of the University of California, priority 2011, dated 2014).
Like-named read-outs stand apart in the source and are kept apart here. Bridge positions count the residues as written; N and C are the ends. Square brackets hold non-standard residues; d marks the D form. Peptide text beside a SMILES is read from it. * marks the point of attachment. Oic = O=C(O)[C@@H]1C[C@@H]2CCCC[C@@H]2N1; Cha = N[C@@H](CC1CCCCC1)C(=O)O; Tle = CC(C)(C)[C@H](N)C(=O)O; Nicotinoyl = O=C(c1cccnc1)*

Key:
[1] = molecular target: T1, rhEphB4 (Homo sapiens, UniProt P54760); test: SPR binding to immobilized rhEphB4 (Biacore 3000)
T1 construct: purchased R&D Systems, Inc., Minneapolis, Minn
T1 sequence (P54760 16-987): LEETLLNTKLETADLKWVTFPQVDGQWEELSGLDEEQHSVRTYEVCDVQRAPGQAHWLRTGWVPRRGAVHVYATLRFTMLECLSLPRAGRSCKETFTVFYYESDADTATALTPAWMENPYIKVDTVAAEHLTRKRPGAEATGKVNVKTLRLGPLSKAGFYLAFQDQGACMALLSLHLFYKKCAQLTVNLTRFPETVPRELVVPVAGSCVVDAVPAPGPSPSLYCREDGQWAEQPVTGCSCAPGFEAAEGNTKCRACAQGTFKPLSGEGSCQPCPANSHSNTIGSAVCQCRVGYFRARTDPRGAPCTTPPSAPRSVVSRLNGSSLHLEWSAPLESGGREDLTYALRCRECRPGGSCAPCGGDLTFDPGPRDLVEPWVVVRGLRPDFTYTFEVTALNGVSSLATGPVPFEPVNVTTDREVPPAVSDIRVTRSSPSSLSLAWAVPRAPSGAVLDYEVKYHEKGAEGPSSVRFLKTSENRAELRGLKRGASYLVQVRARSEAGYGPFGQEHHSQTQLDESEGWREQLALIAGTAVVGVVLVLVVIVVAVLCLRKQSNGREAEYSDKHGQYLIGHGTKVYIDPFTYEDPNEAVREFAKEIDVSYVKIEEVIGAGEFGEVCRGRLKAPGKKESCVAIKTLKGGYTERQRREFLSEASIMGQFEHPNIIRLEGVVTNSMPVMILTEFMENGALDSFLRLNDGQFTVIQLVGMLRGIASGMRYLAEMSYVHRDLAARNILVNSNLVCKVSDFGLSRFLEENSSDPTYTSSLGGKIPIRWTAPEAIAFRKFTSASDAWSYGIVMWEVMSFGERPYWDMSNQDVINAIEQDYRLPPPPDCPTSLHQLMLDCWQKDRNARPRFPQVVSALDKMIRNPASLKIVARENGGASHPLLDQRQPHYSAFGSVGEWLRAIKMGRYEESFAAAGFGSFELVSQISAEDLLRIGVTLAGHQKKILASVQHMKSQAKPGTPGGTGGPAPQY
Method: (§1) Binding to selected ephrin receptors was measured by surface plasmon resonance on a Biacore3000 instrument. Commercially available ephrin receptors: EphA2, EphB2 and EphB4 (R&D Systems) were immobilized on a CM-5 chip by amine coupling and tested peptides were passed over a chip surface as analytes.
(§2) Binding studies. Binding studies were performed by surface plasmon resonance (SPR) on a BIAcore 3000 system (BiaCore AB, Piscataway, N.J.). BIAcore CM5 sensor chips were utilized in all experiments. Binding studies were performed in HBS-EP running buffer (pH=7.4) containing 10 mM HEPES, 150 mM NaCl, 3 mM EDTA, and 0.005% polysorbate 20. Commercially available ephrin receptors: EphA2, EphB2 and EphB4 (R&D Systems, Inc., Minneapolis, Minn.) were immobilized on a CM5 sensor chip using the amine coupling method. The chip was activated by mixing 400 mM N-ethyl-N-(3-dimethylaminopropyl)-carbodiimide hydrochloride and 100 mM N-hydroxysuccinimide. Residual reactive groups on the chip surface were blocked using 1.0 M ethanolamine/HCl (pH=8.5). The flow cell-1 chip, which served as a control, lacked immobilized protein but was treated with N-ethyl-N-(3-dimethylaminopropyl)-carbodiimide hydrochloride, N hydroxysuccinimide, and ethanolamine/HCl. Binding signals were corrected for nonspecific binding by subtracting the flow cell-1 signal (blank surface). To regenerate chip surfaces, bound ligands were removed with 10 mM HCl. Data were analyzed with BIAevaluation 4.1 software (Biacore, Piscataway, N.J.).

[2] = molecular target: rhEphA2 (Homo sapiens, UniProt P29317); test: SPR binding to immobilized rhEphA2 (Biacore 3000); parameters: purchased R&D Systems, Inc., Minneapolis, Minn
Method: as §1, §2

[3] = molecular target: rhEphB2/Fc (Homo sapiens, UniProt P29323); test: SPR binding to immobilized rhEphB2/Fc (Biacore 3000); parameters: Fc; purchased R&D Systems, Inc., Minneapolis, Minn
Method: as §1, §2

| Structure (SMILES) | Kd ([1]; SPR, averaged from at least 4 independent experiments, read-out: KD ± SEM, rhEphB4) | Kd ([2]; SPR, averaged from at least 4 independent experiments, read-out: KD ± SEM, rhEphA2) | Kd ([3]; SPR, averaged from at least 4 independent experiments, read-out: KD ± SEM, rhEphB2/Fc) | Kd [1] | Kd [2] | Kd [3] |
| --- | --- | --- | --- | --- | --- | --- |
| C[C@@H](O)[C@@H]1NC(=O)[C@H](CCCNC(=N)N)NC(=O)[C@H](Cc2c[nH]cn2)NC(=O)CNC(=O)[C@@H]2C[C@@H]3CCCC[C@@H]3N2C(=O)[C@H](CC2CCCCC2)NC(=O)[C@H](C(C)(C)C)NC(=O)[C@@H](NC(=O)[C@H](CC2CCCCC2)NC(=O)[C@H](CC2CCCCC2)NC(=O)[C@H](CCCCN)NC(=O)[C@@H](N)Cc2ccc(O)cc2)CSSC[C@@H](C(=O)N[C@@H](CCCCN)C(N)=O)NC(=O)[C@H](CC2CCCCC2)NC1=O [AzV31] (H-YK[Cha][Cha]C[Tle][Cha][Oic]GHRT[Cha]CK-NH2; disulfide 5-14; N-terminus assumed) | 146 ± 14 nM | 196 ± 25 nM | 192 ± 24 nM |  |  |  |
| C[C@@H](O)[C@@H]1NC(=O)[C@H](CCCNC(=N)N)NC(=O)[C@H](Cc2c[nH]cn2)NC(=O)[C@@H](CCCNC(=N)N)NC(=O)[C@@H]2C[C@@H]3CCCC[C@@H]3N2C(=O)[C@H](CC2CCCCC2)NC(=O)[C@H](C(C)(C)C)NC(=O)[C@@H](NC(=O)[C@H](CC2CCCCC2)NC(=O)[C@H](CC2CCCCC2)NC(=O)[C@H](CCCCN)NC(=O)[C@@H](N)Cc2ccc(O)cc2)CSSC[C@@H](C(=O)N[C@H](CCCCN)C(N)=O)NC(=O)[C@H](CC2CCCCC2)NC1=O [AzV32] (H-YK[Cha][Cha]C[Tle][Cha][Oic][dR]HRT[Cha]C[dK]-NH2; disulfide 5-14) |  |  |  | 197 ± 90 nM | 169 ± 29 nM | 471 ± 160 nM |
| C[C@@H](O)[C@@H]1NC(=O)[C@H](CCCNC(=N)N)NC(=O)[C@H](Cc2c[nH]cn2)NC(=O)CNC(=O)[C@@H]2C[C@@H]3CCCC[C@@H]3N2C(=O)[C@H](CC2CCCCC2)NC(=O)[C@@H](CCCNC(=N)N)NC(=O)[C@@H](NC(=O)[C@H](CC2CCCCC2)NC(=O)[C@H](CC2CCCCC2)NC(=O)[C@H](CCCCN)NC(=O)[C@@H](N)Cc2ccc(O)cc2)CSSC[C@@H](C(=O)N[C@H](CCCCN)C(N)=O)NC(=O)[C@H](CC2CCCCC2)NC1=O [AzV33] (H-YK[Cha][Cha]C[dR][Cha][Oic]GHRT[Cha]C[dK]-NH2; disulfide 5-14) |  |  |  | 78.6 ± 4.5 nM | 100 ± 21 nM | 106 ± 12 nM |
| C[C@@H](O)[C@@H]1NC(=O)[C@H](CCCNC(=N)N)NC(=O)[C@H](Cc2c[nH]cn2)NC(=O)CNC(=O)[C@@H]2C[C@@H]3CCCC[C@@H]3N2C(=O)[C@H](CC2CCCCC2)NC(=O)[C@H](C(C)(C)C)NC(=O)[C@@H](NC(=O)[C@H](CC2CCCCC2)NC(=O)[C@H](CC2CCCCC2)NC(=O)[C@@H](CCCCN)NC(=O)[C@@H](N)Cc2ccc(O)cc2)CSSC[C@@H](C(=O)N[C@H](CCCCN)C(N)=O)NC(=O)[C@H](CC2CCCCC2)NC1=O [AzV34] (H-Y[dK][Cha][Cha]C[Tle][Cha][Oic]GHRT[Cha]C[dK]-NH2; disulfide 5-14) |  |  |  | 135 ± 21 nM | 196 ± 21 nM | 189 ± 21 nM |
| C[C@@H](O)[C@@H]1NC(=O)[C@H](CCCNC(=N)N)NC(=O)[C@H](Cc2c[nH]cn2)NC(=O)[C@@H](CCCNC(=N)N)NC(=O)[C@@H]2C[C@@H]3CCCC[C@@H]3N2C(=O)[C@H](CC2CCCCC2)NC(=O)[C@@H](CCCNC(=N)N)NC(=O)[C@@H](NC(=O)[C@H](CC2CCCCC2)NC(=O)[C@H](CC2CCCCC2)NC(=O)[C@H](CCCCN)NC(=O)[C@@H](N)Cc2ccc(O)cc2)CSSC[C@@H](C(=O)N[C@H](CCCCN)C(N)=O)NC(=O)[C@H](CC2CCCCC2)NC1=O [AzV35] (H-YK[Cha][Cha]C[dR][Cha][Oic][dR]HRT[Cha]C[dK]-NH2; disulfide 5-14) |  |  |  | 73.5 ± 3.7 nM | 126 ± 22 nM | 147 ± 19 nM |
| C[C@@H](O)[C@@H]1NC(=O)[C@H](CCCNC(=N)N)NC(=O)[C@H](Cc2c[nH]cn2)NC(=O)[C@@H](CCCNC(=N)N)NC(=O)[C@@H]2C[C@@H]3CCCC[C@@H]3N2C(=O)[C@H](CC2CCCCC2)NC(=O)[C@H](C(C)(C)C)NC(=O)[C@@H](NC(=O)[C@H](CC2CCCCC2)NC(=O)[C@H](CC2CCCCC2)NC(=O)[C@@H](CCCCNC(=O)c2cccnc2)NC(=O)[C@@H](N)Cc2ccc(O)cc2)CSSC[C@@H](C(=O)N[C@H](CCCCN)C(N)=O)NC(=O)[C@H](CC2CCCCC2)NC1=O [AzV36-Nic, YkNic-Cha-Cha-Cys-Tle-Cha-Oic-rHRT-Cha-Cys-k-CONH] (H-Y[dK](Nicotinoyl)[Cha][Cha]C[Tle][Cha][Oic][dR]HRT[Cha]C[dK]-NH2; disulfide 5-14) |  |  |  | 138 ± 41 nM | 425 ± 226 nM | 251 ± 120 nM |
| C[C@@H](O)[C@@H]1NC(=O)[C@H](CCCNC(=N)N)NC(=O)[C@H](Cc2c[nH]cn2)NC(=O)CNC(=O)[C@@H]2C[C@@H]3CCCC[C@@H]3N2C(=O)[C@H](CC2CCCCC2)NC(=O)[C@@H](CCCNC(=N)N)NC(=O)[C@@H](NC(=O)[C@H](CC2CCCCC2)NC(=O)[C@H](CC2CCCCC2)NC(=O)[C@@H](CCCCN)NC(=O)[C@@H](N)Cc2ccc(O)cc2)CSSC[C@@H](C(=O)N[C@H](CCCCN)C(N)=O)NC(=O)[C@H](CC2CCCCC2)NC1=O [AzV37] (H-Y[dK][Cha][Cha]C[dR][Cha][Oic]GHRT[Cha]C[dK]-NH2; disulfide 5-14) |  |  |  | 76 ± 14 nM | 152 ± 38 nM | 143 ± 37 nM |
| C[C@@H](O)[C@@H]1NC(=O)[C@H](CCCNC(=N)N)NC(=O)[C@H](Cc2c[nH]cn2)NC(=O)[C@@H](CCCNC(=N)N)NC(=O)[C@@H]2C[C@@H]3CCCC[C@@H]3N2C(=O)[C@H](CC2CCCCC2)NC(=O)[C@@H](CCCNC(=N)N)NC(=O)[C@@H](NC(=O)[C@H](CC2CCCCC2)NC(=O)[C@H](CC2CCCCC2)NC(=O)[C@@H](CCCCN)NC(=O)[C@@H](N)Cc2ccc(O)cc2)CSSC[C@@H](C(=O)N[C@H](CCCCN)C(N)=O)NC(=O)[C@H](CC2CCCCC2)NC1=O [AzV38] (H-Y[dK][Cha][Cha]C[dR][Cha][Oic][dR]HRT[Cha]C[dK]-NH2; disulfide 5-14) |  |  |  | 46.3 ± 3.8 nM | 109 ± 3.5 nM | 101 ± 2.7 nM |
